Results on 79 compounds are retold here after the Kinase Knowledgebase extract (Sharma et al. 2016).

The target of the test is PIK3CA (human) (UniProt P42336). Briefly: Inhibition of PIK3CA Kinase Activity.

SMILES strings stand for the structures. pIC50: −log10 of the molar value.

PIK3CA (human), sequence (P42336 whole entry, looked up): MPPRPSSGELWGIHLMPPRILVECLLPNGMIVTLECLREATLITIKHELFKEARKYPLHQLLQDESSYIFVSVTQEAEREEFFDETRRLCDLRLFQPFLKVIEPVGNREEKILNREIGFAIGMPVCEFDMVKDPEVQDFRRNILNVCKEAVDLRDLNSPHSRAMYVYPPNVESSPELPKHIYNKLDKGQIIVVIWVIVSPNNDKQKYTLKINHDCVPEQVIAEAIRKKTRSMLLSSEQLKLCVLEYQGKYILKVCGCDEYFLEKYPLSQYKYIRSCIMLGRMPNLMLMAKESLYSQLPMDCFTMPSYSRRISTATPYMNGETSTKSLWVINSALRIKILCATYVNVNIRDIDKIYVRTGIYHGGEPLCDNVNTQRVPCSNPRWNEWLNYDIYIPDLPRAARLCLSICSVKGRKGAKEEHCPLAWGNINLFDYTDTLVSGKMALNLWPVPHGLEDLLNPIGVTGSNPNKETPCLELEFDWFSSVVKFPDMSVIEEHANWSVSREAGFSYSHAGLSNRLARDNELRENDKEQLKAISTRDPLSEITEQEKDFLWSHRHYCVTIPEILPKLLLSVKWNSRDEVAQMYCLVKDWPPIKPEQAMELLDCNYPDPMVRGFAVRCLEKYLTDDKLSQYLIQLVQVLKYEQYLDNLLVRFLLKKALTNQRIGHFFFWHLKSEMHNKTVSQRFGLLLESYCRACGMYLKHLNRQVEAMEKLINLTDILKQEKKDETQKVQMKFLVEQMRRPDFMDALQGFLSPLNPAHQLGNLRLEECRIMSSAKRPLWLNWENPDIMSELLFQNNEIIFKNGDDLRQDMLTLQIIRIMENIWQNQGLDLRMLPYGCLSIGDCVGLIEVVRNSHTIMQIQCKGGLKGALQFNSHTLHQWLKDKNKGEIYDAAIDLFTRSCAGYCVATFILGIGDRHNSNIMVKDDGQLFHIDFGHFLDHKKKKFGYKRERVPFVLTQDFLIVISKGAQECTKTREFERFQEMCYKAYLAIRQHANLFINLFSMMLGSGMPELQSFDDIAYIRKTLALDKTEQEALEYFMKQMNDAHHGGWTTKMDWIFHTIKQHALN

The pIC50 is −log10 of the IC50, conventionally taken in molar units. For `CC[C@H]1CCCc2c(ncnc2N2CCOc3ccc(-c4cnc5nc(C)[nH]c5c4)cc3C2)C1`, the pIC50 is 7.30 to 8.00.

Turning to `Cc1nc2ncc(-c3ccc4c(c3)CN(c3nc(CNCC(F)(F)F)nc5c3CC(C)(C)CC5)CCO4)cc2[nH]1`, the negative-log IC50 (pIC50) was 6.60 to 7.30.

Compound `CCCNC(=O)c1ccc(-c2ccc3c(c2)CN(c2ccnc4ccccc24)CCO3)cc1` had a negative-log IC50 (pIC50) of 6.00 to 6.60.

In turn, `CC1(C)C=Cc2ncnc(N3CCOc4ccc(-c5cnc(N)c(S(=O)(=O)N6CC[C@@H](N)C6)c5)cc4C3)c2C1` showed a negative logarithm of the IC50 (pIC50) of 7.30 to 8.00.

In turn, `Cc1nc2ncc(-c3ccc4c(c3)CN(c3ncnc5c3CC(C)(C)C=C5)CCO4)cc2[nH]1` showed a pIC50 of 7.30 to 8.00.

Consider `CC1(C)CCc2ncnc(N3CCOc4ccc(-c5cnc(N)c(S(=O)(=O)NCCF)c5)cc4C3)c2C1`, for which the negative logarithm of the IC50 (pIC50) was ≥ 8.00.

`Cc1nc2cc(-c3ccc4c(c3)CN(c3nc(CN(C)C)nc5c3CC(C)(C)CC5)CCO4)c(F)cc2[nH]1` showed a pIC50 of 6.60 to 7.30.

For `Cc1nc2ccc(-c3ccc4c(c3)CN(c3ncnc5c3CCN(Cc3ccccc3)C5)CCO4)cc2[nH]1`, the negative logarithm of the IC50 (pIC50) is 6.00 to 6.60.

As to `Cc1nc(N)nc(N2CCOc3ccc(-c4cnc5[nH]cnc5c4)cc3C2)c1Cc1ccc(F)cc1`, the pIC50 was ≥ 8.00.

In the case of `Cc1nc2ccc(-c3ccc4c(c3)CN(c3nc(CN(C)C)nc5c3CC(C)(C)CC5)CCO4)cc2[nH]1`, the pIC50 was ≥ 8.00.

Consider `Cc1nc2ccc(-c3ccc4c(c3)CN(c3ccnc(Nc5ccccc5)n3)CCO4)cc2[nH]1`, for which the pIC50 is 6.00 to 6.60.

`COC(=O)Nc1nc2ccc(-c3ccc4c(c3)CN(c3ncnc5cc(OC)c(OC)cc35)CCO4)cc2[nH]1`: the pIC50 is 7.30 to 8.00.

In turn, `CCc1ncnc(N2CCOc3ccc(-c4ccc5nc(C)[nH]c5c4)cc3C2)c1Cc1ccccc1` showed a pIC50 of 7.30 to 8.00.

Take `CC1=Cc2ncnc(N3CCOc4ccc(-c5cnc(N)c(S(=O)(=O)NCC(C)(C)N)c5)cc4C3)c2CC1(C)C`: the negative-log IC50 (pIC50) was 7.30 to 8.00.

For the compound `COCCNCc1nc2c(c(N3CCOc4ccc(-c5ccc6nc(C)[nH]c6c5)cc4C3)n1)CC(C)(C)CC2`, the pIC50 is 7.30 to 8.00.

Take `Cc1nc2ccc(-c3ccc4c(c3)CN(c3ncnc(C)c3C(C)c3cccc(F)c3)CCO4)cc2[nH]1` (centres undefined): the negative-log IC50 (pIC50) was ≥ 8.00.

`CCNc1nc2ccc(-c3ccc4c(c3)CN(c3cc(Nc5ccccc5)ncn3)CCO4)cc2[nH]1` showed a pIC50 of 6.60 to 7.30.

As to `CC1(C)CCc2ncnc(N3CCOc4ccc(-c5cnc6[nH]c(C7CC7)nc6c5)cc4C3)c2C1`, the pIC50 is 7.30 to 8.00.

`COc1cc2c(N3CCOc4ccc(-c5ccc6nc(C)[nH]c6c5)cc4C3)ncnc2cc1Br` showed a pIC50 of 6.00 to 6.60.

As for `Cc1nc2ncc(-c3ccc4c(c3)CN(c3nc(CN5CC[C@H](F)C5)nc5c3CC(C)(C)CC5)CCO4)cc2[nH]1`, the pIC50 is 7.30 to 8.00.

Take `CCNc1nc2ccc(-c3ccc4c(c3)CN(c3cc(C)nc5cc(OC)ccc35)CCO4)cc2[nH]1`: the pIC50 is ≥ 8.00.

In turn, `CC1(C)CCc2ncnc(N3CCOc4ccc(-c5cnc(F)c(NS(C)(=O)=O)c5)cc4C3)c2C1` had a pIC50 of 6.60 to 7.30.

Turning to `CC1(C)CCc2ncnc(N3CCOc4ccc(-c5cnc6nc(N)[nH]c6c5)cc4C3)c2C1`, the negative-log IC50 (pIC50) was ≥ 8.00.

For the compound `C=Cc1nc2c(c(N3CCOc4ccc(-c5cnc6[nH]c(C)nc6c5)cc4C3)n1)CC(C)(C)CC2`, the negative logarithm of the IC50 (pIC50) was 6.60 to 7.30.

Turning to `Cc1nc2ncc(-c3ccc4c(c3)CN(c3ncnc5c3CC(F)(F)CC5)CCO4)cc2[nH]1`, the negative logarithm of the IC50 (pIC50) was 6.00 to 6.60.

As for `CC1(C)CCc2ncnc(N3CCOc4ccc(-c5cnc(N)c(S(=O)(=O)N6CCC6)c5)cc4C3)c2C1`, the negative-log IC50 (pIC50) was 7.30 to 8.00.

In turn, `Cc1nc2cc(-c3ccc4c(c3)CN(c3nc(CN(C)C)nc(C)c3Cl)CCO4)ccc2[nH]1` had a negative logarithm of the IC50 (pIC50) of 6.60 to 7.30.

On to `COc1ccc2c(N3CCOc4ccc(-c5cnc6nc(N)[nH]c6c5)cc4C3)nc(C)nc2c1`, for which the negative-log IC50 (pIC50) was ≥ 8.00.

In turn, `Cc1nc2ncc(-c3ccc4c(c3)CN(c3ncnc5c3CC(C)CC5)CCO4)cc2[nH]1` (centres undefined) showed a pIC50 of 7.30 to 8.00.

For the compound `Cc1nc(N2CCOc3ccc(-c4ccc(-c5ncc[nH]5)cc4)cc3C2)c2ccccc2n1`, the pIC50 was 7.30 to 8.00.

`Cc1nc2cc(-c3ccc4c(c3)CN(c3nc([C@H]5CCCN5)nc5c3CC(C)(C)CC5)CCO4)ccc2[nH]1` had a pIC50 of 7.30 to 8.00.

In turn, `CC1(C)CCc2ncnc(N3CCOc4ccc(-c5ccc(-c6ncc[nH]6)cc5)cc4C3)c2C1` gave a negative-log IC50 (pIC50) of 7.30 to 8.00.

In the case of `Cc1nc(N)sc1-c1ccc2c(c1)CN(c1ncnc(C)c1Cc1ccc(F)cc1)CCO2`, the pIC50 was 6.00 to 6.60.

As for `CC1(C)CCc2ncnc(N3CCOc4ccc(-c5cnc(N)c(S(=O)(=O)N6CCC(N)C6)c5)cc4C3)c2C1` (centres undefined), the pIC50 is 7.30 to 8.00.

`CNC(=O)c1ccc(-c2ccc3c(c2)CN(c2ncnc(C)c2Cc2ccc(F)cc2)CCO3)nc1` gave a negative-log IC50 (pIC50) of 6.00 to 6.60.

For `CCc1c(C)ncnc1N1CCOc2ccc(-c3ccc4nc(C)[nH]c4c3)cc2C1`, the negative-log IC50 (pIC50) is 6.60 to 7.30.

Compound `Cc1nc2ncc(-c3ccc4c(c3)CN(c3ncnc5c3CCC(CO)C5)CCO4)cc2[nH]1` (centres undefined) gave a pIC50 of 7.30 to 8.00.

Regarding `CCc1nc(CN(C)C)nc(N2CCOc3ccc(-c4ccc5[nH]c(C)nc5c4)cc3C2)c1C`, the pIC50 was 7.30 to 8.00.

For `Cc1nc2ccc(-c3ccc4c(c3)CN(c3ncnc5sccc35)CCO4)cc2[nH]1`, the pIC50 was 6.00 to 6.60.

The compound `Cc1nc2cc(-c3ccc4c(c3)CN(c3nc(CN5CCCC5)nc(C)c3C(C)C)CCO4)ccc2[nH]1` showed a pIC50 of 7.30 to 8.00.

`c1ccc2c(N3CCOc4ccc(-c5cn[nH]c5)cc4C3)ccnc2c1` had a pIC50 of 6.00 to 6.60.

In turn, `CC1(C)CCc2ncnc(N3CCOc4ccc(-c5cnc(N)c(S(=O)(=O)NCC(F)(F)F)c5)cc4C3)c2C1` gave a negative-log IC50 (pIC50) of 6.60 to 7.30.

The compound `CCCc1nc2cc(-c3ccc4c(c3)CN(c3ncnc5c3CC(C)(C)CC5)CCO4)cnc2[nH]1` had a pIC50 of 6.60 to 7.30.

`Cc1c(NCC2CCN(C)CC2)ncnc1N1CCOc2ccc(-c3cnc4nc(C5CC5)[nH]c4c3)cc2C1` showed a pIC50 of 6.00 to 6.60.

With `Cc1nc(C)c(CC2CC2)c(N2CCOc3ccc(-c4cnc5nc(C6CC6)[nH]c5c4)cc3C2)n1`, the pIC50 was 7.30 to 8.00.

`COc1cccc(Cc2c(C)ncnc2N2CCOc3ccc(-c4ccc5nc(C)[nH]c5c4)cc3C2)c1` gave a negative-log IC50 (pIC50) of 7.30 to 8.00.

Compound `CC1(C)CCc2ncnc(N3CCOc4ccc(-c5cnc6c(c5)OCCN6)cc4C3)c2C1` showed a negative-log IC50 (pIC50) of 6.00 to 6.60.

For the compound `CCc1c(C)nc(CN(C)C)nc1N1CCOc2ccc(-c3ccc4[nH]c(C)nc4c3)cc2C1`, the pIC50 was 7.30 to 8.00.

`COc1ccc2c(N3CCOc4ccc(-c5cnc6nc(C)[nH]c6c5)cc4C3)ncnc2c1`: the negative-log IC50 (pIC50) is ≥ 8.00.

`CC1(C)CCc2ncnc(N3CCOc4ccc(-c5cnc6[nH]c(CF)nc6c5)cc4C3)c2C1` had a pIC50 of 7.30 to 8.00.

The compound `CC[C@H]1CCc2c(ncnc2N2CCOc3ccc(-c4cnc(N)c(S(=O)(=O)N5CC[C@@H](N)C5)c4)cc3C2)C1` gave a pIC50 of 7.30 to 8.00.

On to `COc1ccc2c(N3CCOc4ccc(-c5cnc6sc(N)nc6c5)cc4C3)nc(C)nc2c1`, for which the pIC50 is ≥ 8.00.

The compound `CC1(C)CCc2ncnc(N3CCOc4ccc(-c5cnc(N)c(S(=O)(=O)N[C@@H]6CCNC6)c5)cc4C3)c2C1` had a negative logarithm of the IC50 (pIC50) of 7.30 to 8.00.

In turn, `Cc1nc2c(c(N3CCOc4ccc(-c5cnc(N)c(S(=O)(=O)N[C@@H]6CCN(C)C6)c5)cc4C3)n1)CC(C)(C)CC2` showed a pIC50 of 6.60 to 7.30.

`CCNc1nc2ccc(-c3ccc4c(c3)CN(c3ccnc5ccccc35)CCO4)cc2[nH]1`: the pIC50 was ≥ 8.00.

`Cc1ncnc(N2CCOc3ccc(-c4ccc5sc(N)nc5c4)cc3C2)c1Cc1ccc(F)cc1` had a pIC50 of 6.60 to 7.30.

On to `Nc1nc2ncc(-c3ccc4c(c3)CN(c3ncnc5cccnc35)CCO4)cc2[nH]1`, for which the negative logarithm of the IC50 (pIC50) was 7.30 to 8.00.

Consider `Cc1nc2ccc(-c3ccc4c(c3)CN(c3ncnc5c(Cl)cccc35)CCO4)cc2[nH]1`, for which the pIC50 was 7.30 to 8.00.

Turning to `CC1(C)C=Cc2ncnc(N3CCOc4ccc(-c5cnc6nc(C7CC7)[nH]c6c5)cc4C3)c2C1`, the pIC50 was 7.30 to 8.00.

In turn, `COc1cc2c(N3CCOc4ccc(-c5cnc6nc(N)[nH]c6c5)cc4C3)ncnc2cc1Br` had a negative logarithm of the IC50 (pIC50) of 7.30 to 8.00.

On to `COc1ccc2c(N3CCOc4ccc(-c5ccc6nc[nH]c6c5)cc4C3)nc(C)nc2c1`, for which the pIC50 was ≥ 8.00.

Compound `CN(C)c1nc2ccc(-c3ccc4c(c3)CN(c3ccnc5ccccc35)CCO4)cc2[nH]1` gave a pIC50 of 6.00 to 6.60.

`CCC(N)CNS(=O)(=O)c1cc(-c2ccc3c(c2)CN(c2ncnc4c2CC(C)(C)CC4)CCO3)cnc1N` (centres undefined) gave a pIC50 of 7.30 to 8.00.

Compound `CCCOc1ccc2ncnc(N3CCOc4ccc(-c5ccc6nc(C)[nH]c6c5)cc4C3)c2c1` showed a negative-log IC50 (pIC50) of 6.00 to 6.60.

In the case of `Cc1nc2c(c(N3CCOc4ccc(-c5cnc6nc(C)[nH]c6c5)cc4C3)n1)CC(C)(C)CC2`, the pIC50 is 7.30 to 8.00.

For `CC1(C)CCc2ncnc(N3CCOc4ccc(-c5cnc6sc(N)nc6c5)cc4C3)c2C1`, the negative-log IC50 (pIC50) is 7.30 to 8.00.

On to `CC[C@H]1CCc2c(ncnc2N2CCOc3ccc(-c4cnc(N)c(S(=O)(=O)NCC(C)(C)N)c4)cc3C2)C1`, for which the pIC50 is 7.30 to 8.00.

Take `CCCc1c(C)nc(CN(C)C)nc1N1CCOc2ccc(-c3ccc4nc(C)[nH]c4c3)cc2C1`: the pIC50 was 7.30 to 8.00.

Compound `Nc1ccc(-c2ccc3c(c2)CN(c2ccnc4ccccc24)CCO3)cn1` gave a negative-log IC50 (pIC50) of 6.60 to 7.30.

In turn, `Cc1nc2ccc(-c3ccc4c(c3)CN(c3ncnc5c3CCCC5)CCO4)cc2[nH]1` showed a pIC50 of 6.60 to 7.30.

The compound `COc1ccc2c(N3CCOc4ccc(-c5ccc(N)cc5)cc4C3)nc(C)nc2c1` gave a pIC50 of 6.00 to 6.60.

`Cc1nc2ncc(-c3ccc4c(c3)CN(c3ncnc(C)c3C)CCO4)cc2[nH]1`: the negative logarithm of the IC50 (pIC50) was 6.60 to 7.30.

Turning to `CC[C@H]1CCc2c(ncnc2N2CCOc3ccc(-c4cnc(N)c(S(=O)(=O)N5C[C@@H]6C[C@H]5CN6)c4)cc3C2)C1`, the negative logarithm of the IC50 (pIC50) is 7.30 to 8.00.

As to `COc1cncc(-c2ccc3c(c2)CN(c2ncnc4c2CC(C)(C)CC4)CCO3)c1`, the pIC50 was 6.00 to 6.60.

`COc1cc2c(N3CCOc4ccc(-c5ccc6nc(C)[nH]c6c5)cc4C3)ncnc2cc1OCc1ccccc1` had a pIC50 of 6.00 to 6.60.

Compound `Cc1nc2ncc(-c3ccc4c(c3)CN(c3ncnc(C)c3Br)CCO4)cc2[nH]1` showed a pIC50 of 6.60 to 7.30.

As for `CCS(=O)(=O)c1cc(-c2ccc3c(c2)CN(c2ncnc4c2CC(C)(C)CC4)CCO3)cnc1N`, the pIC50 was 7.30 to 8.00.

For `CC(C)(N)CNS(=O)(=O)c1cc(-c2ccc3c(c2)CN(c2ncnc4c2CC(C)(C)CC4)CCO3)cnc1N`, the negative logarithm of the IC50 (pIC50) was 6.60 to 7.30.

Take `Cc1nc2cc(-c3ccc4c(c3)CN(c3ncnc5c3CC3(CC5)CC3)CCO4)cnc2[nH]1`: the negative logarithm of the IC50 (pIC50) was 7.30 to 8.00.
